{
  "source": "paper PMC7266110",
  "about": "(Drug Design, Development and Therapy, 2020)",
  "biological_target": "T1, PPARγ (Homo sapiens, UniProt P37231)",
  "T1 sequence (P37231 1-505)": "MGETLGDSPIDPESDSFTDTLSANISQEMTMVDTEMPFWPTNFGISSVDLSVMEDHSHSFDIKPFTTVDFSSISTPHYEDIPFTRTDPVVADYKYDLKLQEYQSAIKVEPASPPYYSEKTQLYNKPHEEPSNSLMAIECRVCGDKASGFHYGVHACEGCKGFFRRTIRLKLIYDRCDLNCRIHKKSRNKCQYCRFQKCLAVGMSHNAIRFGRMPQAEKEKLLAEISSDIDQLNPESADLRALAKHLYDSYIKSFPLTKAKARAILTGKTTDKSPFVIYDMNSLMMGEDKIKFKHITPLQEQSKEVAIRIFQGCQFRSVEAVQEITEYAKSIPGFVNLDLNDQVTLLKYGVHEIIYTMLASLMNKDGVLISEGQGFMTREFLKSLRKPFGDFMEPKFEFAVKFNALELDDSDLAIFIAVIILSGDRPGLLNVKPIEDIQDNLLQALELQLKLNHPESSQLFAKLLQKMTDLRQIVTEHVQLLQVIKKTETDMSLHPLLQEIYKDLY",
  "experiment": "FP-based PPARγ ligand screening assay",
  "format": "binding",
  "data": [
    {"smiles": "O=C(/C=C/C=C/c1ccc2c(c1)OCO2)N1CCCCC1", "note": "[Piperine]", "values": [
      {"measurement": "IC50", "value": 18.4, "unit": "µM"}
    ]}
  ]
}
